Laboratory results reported in US20070142462A1, “Method of Treating Cancer” (The University of Utah, priority 2000, published 2007).

Tests used:
M1619 cells [1] = experiment: Cytotoxicity by trypan blue; format: cell-based; conditions: catalase treatment; 24 hours
Description: Measurement of Cytotoxicity and Apoptosis. To assess for cytotoxicity, near confluent cells cultured in 24 well plates were exposed to antioxidants or withdrawn from serum for 24 hours. Medium was removed, and replaced with Dulbecco=s phosphate buffered saline (DPBS) containing 0.1% trypan blue. […] To assess for apoptosis, cells grown on glass slides were treated with antioxidants for 24 hours. Apoptosis was studied by terminal deoxynucleotidyl transferase (TdT) dependent 3′BOH fluorescein end-labeling of DNA fragments, using a Fluorescein-FragEL™ DNA fragmentation detection kit (Oncogene Research Products, Cambridge, Mass.). DNase-treated fixed cells were used as a positive control.

Melanoma M1585 cells = experiment: MTT proliferation assay, M1585 melanoma; format: cell-based, human; conditions: Catalase 3000 U/ml; 10% FBS; 48 hours; mean±SE vs control
Description: Measurement of Proliferation in Cell Cultures. […] This assay empirically distinguishes between dead and living cells.
Cell Culture Treatments. The effect of antioxidant treatments on proliferation of malignant cell lines was studied in cultures stimulated with 10% FBS. Cell numbers were quantitated by the MTT assay 24-72 hours later. In some experiments, antioxidants were added immediately after cells were plated. In other experiments, cells were plated and allowed to grow for 24 hours before fresh media with antioxidants was added, and cell numbers were studied by the MTT assay 48 hours later.
Cells stimulated with 10% FBS were plated at a density of 50,000 cells per well. DMSO and antioxidants were added to cell wells at the indicated concentrations. […] Each value represents a mean of at least 4 experiments.

M1619 cells [2] = experiment: DNA cell cycle analysis by flow cytometry; format: cell-based, human; conditions: 3,000 U/ml catalase, 24 hours
Description: DNA Cell Cycle Measurements. To study the effect of antioxidant treatments on the DNA cell cycle, cells were grown to near confluence in 25 cm^2 plastic flasks and treated for 24 hours. Cells were typsinized, washed twice in cold DPBS with 1 mM EDTA and 1% bovine serum albumin (BSA), fixed 30 min in ice-cold 70% ethanol, and stained by incubation for 30 min at 37° C. in a 10 μg/ml solution of propidium iodide in DPBS and 1 mg/ml RNase A. DNA cell cycle measurements were made using a FACStar^PLUS Flow Cytometer (Becton-Dickenson, San Jose, Calif.).
Near confluent monolayers of M1619 cells were incubated in RPMI 1640 and 10% FBS in the presence or absence of 3,000 U/ml catalase. After 24 hours, cells were harvested, ethanol-fixed, permeabilized with proteinase K, stained with propidium iodide and subjected to DNA cell cycle analysis. Whereas a large fraction (30.2%) of untreated cells (FIG. 6A) were tetraploid, only 12.8% of catalase-treated cells (FIG. 6B) were tetraploid. […] G2-M was hidden by tetraploid G0-G1 or by debris and could not be analyzed.

Substance: Catalase
- trypan blue dye exclusion (M1619 cells [1]): significantly increased
- Percent Growth Inhibition (Melanoma M1585 cells): 80 ± 1
- fraction of cells tetraploid (M1619 cells [2]; untreated 30.2%): 12.8%
- total percentage of cells in S-phase (M1619 cells [2]; untreated 41.2%): 56.7%
